A short description of data set [1]: AUClast in Swiss mouse Kidney at 3 mg/kg, iv measured upto 24 hrs by LC-MS/MS analysis. Details: dose 3 mg/kg, time < 24 hrs, route iv. It is filed as ADME, organism-based.
Data set [2] can be described thus: Metabolic stability in mouse lung assessed as parent compound remaining measured after 4 hrs by UPLC-MS analysis. The conditions noted are these: mouse lung, read-out: Stability. It is filed as ADME, tissue-based.
The subject of data set [3] is Klebsiella pneumoniae. Put plainly: Antibacterial activity against wild type Klebsiella pneumoniae ATCC 13883 assessed as reduction in microbial growth incubated for 20 to 22 hrs by CLSI based analysis. Type of data set: functional. The conditions noted are these: time 20-22 hrs.
In data set [4] the test system is Klebsiella pneumoniae. Put plainly: Antibacterial activity against multidrug-resistant Klebsiella pneumoniae NCTC 13443 assessed as bacterial growth inhibition incubated for 20 to 22 hrs by CLSI based analysis. It is filed as functional. The conditions noted are these: time 20-22 hrs.
Data set [5] relates to Acinetobacter baumannii. Put plainly: Antibacterial activity against multidrug-resistant Acinetobacter baumannii R835 assessed as bacterial growth inhibition incubated for 20 to 22 hrs by CLSI based analysis. Type of data set: functional. The conditions noted are these: time 20-22 hrs.
A short description of data set [6]: Aqueous solubility of compound at pH 5.5. It is filed as physicochemical. The conditions noted are these: buffer.
Data set [7] has as its system Klebsiella pneumoniae. Put plainly: Antibacterial activity against multidrug-resistant Klebsiella pneumoniae R1525 assessed as bacterial growth inhibition incubated for 20 to 22 hrs by CLSI based analysis. Type of data set: functional. The conditions noted are these: time 20-22 hrs.
Data set [8] relates to HepG2. Put plainly: Cytotoxicity against human HepG2 cells assessed as inhibition of cell growth at 30 uM incubated for 40 hrs by celltiterglo assay. It is filed as functional.
Data set [9] is described as follows: Half life in Swiss mouse at 3 mg/kg, iv measured upto 24 hrs by LC-MS/MS analysis. The conditions noted are these: in vivo. It is filed as ADME, organism-based.
Data set [10] can be described thus: AUClast in Swiss mouse Lung at 3 mg/kg, iv measured upto 24 hrs by LC-MS/MS analysis. Type of data set: ADME, organism-based. Details: time < 24 hrs, dose 3 mg/kg, route iv.
Data set [11] concerns Escherichia coli. Put plainly: Antibacterial activity against multidrug-resistant Escherichia coli UT189 assessed as bacterial growth inhibition incubated for 20 to 22 hrs by CLSI based analysis. The conditions noted are these: time 20-22 hrs. Type of data set: functional.
For data set [12], the system named is Acinetobacter baumannii. The data set is described as follows: Antibacterial activity against multidrug-resistant Acinetobacter baumannii R831 assessed as bacterial growth inhibition incubated for 20 to 22 hrs by CLSI based analysis. It is filed as functional. The conditions noted are these: time 20-22 hrs.
Data set [13] has as its system Escherichia coli. Put plainly: Antibacterial activity against Escherichia coli ATCC 25922 infected in Swiss albino mouse model of Septicaemia infection assessed as log reduction in Septicaemia in blood at 0.1 to 10 mg/kg , iv preincubated for 4 hrs followed by bacterial infection and measured after 4 hrs post infection. Type of data set: functional. The conditions noted are these: dose 0.1-10 mg/kg, time 8 hrs.

Data set [14] in a line: Metabolic stability in mouse lung assessed as parent compound remaining measured after 1 hrs by UPLC-MS analysis. It is filed as ADME, tissue-based. The conditions noted are these: mouse lung, read-out: Stability.
Data set [15] is described as follows: Protein binding in mouse plasma assessed as free fraction. It is filed as ADME, cell-free.
Data set [16] concerns Escherichia coli. The data set is described as follows: Antibacterial activity against Escherichia coli ATCC 25922 infected in Swiss albino mouse thigh infection model at 10 mg/kg, iv measured after 1 hr. It is filed as functional, organism-based.
Data set [17] relates to Escherichia coli. The data set is described as follows: Antibacterial activity against Escherichia coli UT189 infected in Swiss albino mouse model of urinary tract infection assessed as log reduction in bacteremia in kidney at 10 mg/kg, iv pre-infected with bacteria for 24 hrs followed by compound treatment for every 24 hrs for 3 days. Type of data set: functional. The conditions noted are these: time 3 day.

The test system of data set [18] is Providencia stuartii. Put plainly: Antibacterial activity against multidrug-resistant Providencia stuartii ATCC 49809 assessed as bacterial growth inhibition incubated for 20 to 22 hrs by CLSI based analysis. Type of data set: functional. The conditions noted are these: time 20-22 hrs.
Data set [19] concerns Proteus mirabilis. Put plainly: Antibacterial activity against multidrug-resistant Proteus mirabilis ATCC 7002 assessed as bacterial growth inhibition incubated for 20 to 22 hrs by CLSI based analysis. It is filed as functional. The conditions noted are these: time 20-22 hrs.

Converted amounts (≈) assume the structure as drawn. The source made the active and inactive calls. The rule behind the calls is not given here.

On to `CO[C@@H](CNC(=O)[C@H](NC(=O)[C@H](O)[C@H](C)O)[C@H](O)c1cncn1C)[C@H](O)[C@H](O)C(=O)N(C)[C@@H](Cc1ccccc1)C(=O)NCC(=O)N[C@H](C(=O)N[C@@H](CO)C(=O)N[C@H](C(=O)N[C@H](C(=O)N[C@@H](CC(=O)O)C(=O)N1CCC[C@H]1C(=O)NCc1cc(=O)c(O)cn1O)C(C)(C)C)C(C)(C)O)C(C)(C)O`, for which the AUC(0-t) at 24 h came to 7150 ng·h/mL in data set [1] and 1010 ng·h/mL in data set [10]. Further, the remaining at 4 h in data set [2] worked out at 80%. Also, the MIC in data set [3] was 0.03 µg/mL; in data set [4], 2 µg/mL (≈ 1.38 µM); in data set [5] it was 0.06 µg/mL (≈ 0.0415 µM); in data set [7], 0.06 µg/mL (≈ 0.0415 µM); in data set [11], 0.01 µg/mL (≈ 0.00691 µM); in data set [12], 2 µg/mL (≈ 1.38 µM). The MIC in data set [18] stood at 0.06 µg/mL (≈ 0.0415 µM); in data set [19] it was 0.12 µg/mL (≈ 0.0829 µM). The solubility in data set [6] was determined as 9100 µg/mL (≈ 6290 µM). Besides, in data set [8], the outcome was inactive. Also, in data set [9], the half-life is 15 min. Moreover, the entries for the “log(activity)” value in data set [13] and in [17] were 3 and 3.6, respectively. Also, the remaining at 1 h in [14] came out at 100%. Besides, the fraction unbound in data set [15] was determined as 0.51. Further, the result in data set [16] was Active.

For the origin of these results see ChEMBL document CHEMBL5356971, “Optimization of the Antibacterial Spectrum and the Developability Profile of the Novel-Class Natural Product Corramycin” (J Med Chem, 2023).
